# Patent US10669272B2, “Substituted naphthyridinone compounds useful as T cell activators” (BRISTOL-MYERS SQUIBB COMPANY, priority 2018, dated 2020)
# Where two headings read alike, the source gives them in different places.
# Legend:
# [1] = tested on: OT-1 CD8+ T cells with SIINFEKL-loaded MC38 tumor cells; experiment: Murine cytotoxic T lymphocyte assay (IFN-γ, OT-1 CTL with MC38 tumor cells); assay type: cell-based, mouse; conditions: read-out: msCTL INFg IC50
# Description: 5. Murine Cytotoxic T Lymphocyte Assay
# An antigen-specific cytolytic T-cell (CTL) assay was developed to evaluate functionally the ability of DGKα and DGKζ inhibitors to enhance effector T cell mediated tumor cell killing activity. CD8+ T-cells isolated from the OT-1 transgenic mouse recognize antigen presenting cells, MC38, that present the ovalbumin derived peptide […]. Recognition of the cognate antigen initiates the cytolytic activity of the OT-1 antigen-specific CD8+ T cells.
# Functional CTL cells were generated as follows: OT-1 splenocytes from 8-12 week old mice were isolated and expanded in the presence of the […] peptide at 1 μg/mL and mIL2 at 10 U/mL. After three days, fresh media with […] was added. On day 5 of the expansion, the CD8+ T cells were isolated and ready for use. Activated CTL cells may be stored frozen for 6 months. Separately, one million MC38 tumor cells were pulsed with 1 μg/mL of […]-OVA peptide for 3 hours at 37° C. The cells were washed (3×) with fresh media to remove excess peptide. Finally, CTL cells that were pretreated with DGK inhibitors for 1 hour in a 96-well U bottom plate were combined with the antigen loaded MC38 tumor cells at a 1:10 ratio. The cells were then spun at 700 rpm for 5 min and placed in an incubator overnight at 37° C. After 24 hours, the supernatant was collected for analysis of IFN-γ cytokine levels by AlphaLisa purchased from Perkin Elmer.
# human DGKζ = molecular target: T1, human DGKζ (Homo sapiens, UniProt Q13574); experiment: DGKζ LIPGLO assay (extruded liposome substrate), in vitro DGK inhibition; assay type: biochemical; conditions: read-out: DGKz LIPGLO IC50
# T1 construct: TVMV protease cleavage site (C); Hexa-His (C); made in house; host or cells: Sf9 insect cells (baculovirus, Bac-to-Bac)
# Human venous whole blood = experiment: Human whole blood IFN-γ assay; assay type: cell-based;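 note: blood from healthy donors exposed to compound for 1 h before stimulation with anti-CD3 and anti-CD28 at 1 µg/mL each, IFN-γ quantified in supernatant by AlphaLISA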
# human DGKα = molecular target: T2, human DGKα (Homo sapiens, UniProt P23743); experiment: DGKα LIPGLO assay (extruded liposome substrate), in vitro DGK inhibition; assay type: biochemical; conditions: read-out: DGKa LIPGLO IC50
# T2 construct: TVMV protease cleavage site (C); Hexa-His (C); made in house; host or cells: Sf9 insect cells (baculovirus, Bac-to-Bac)
# naïve human CD8 T cells = experiment: Human CD8 T cells IFN-γ assay; assay type: cell-based; conditions: read-out: HuCD8 INFG Normalized EC50;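 note: Naïve human CD8 T cells stimulated with plate-bound anti-CD3 and soluble anti-CD28, IFN-γ in supernatant quantified by AlphaLISA and converted to pg/mL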
# [2] = Homo sapiens, 24 h, human whole blood, normalized to 3 μM reference compound with anti-CD3 plus anti-CD28 as 100% activation, read-out: INFg Whole Blood Normalized Agonist EC50
# [3] = human whole blood, normalized to 3 μM reference compound with anti-CD3 plus anti-CD28 as 100% activation, read-out: INFg Whole Blood Normalized Agonist EC50
# [4] = normalized to 3 μM reference compound with anti-CD3 plus anti-CD28 as 100% activation
# [5] = Homo sapiens, T-cell, 20 h, normalized to 3 μM reference compound with anti-CD3 plus anti-CD28 as 100% activation
# T2 sequence (P23743 with tags, fused parts or gaps): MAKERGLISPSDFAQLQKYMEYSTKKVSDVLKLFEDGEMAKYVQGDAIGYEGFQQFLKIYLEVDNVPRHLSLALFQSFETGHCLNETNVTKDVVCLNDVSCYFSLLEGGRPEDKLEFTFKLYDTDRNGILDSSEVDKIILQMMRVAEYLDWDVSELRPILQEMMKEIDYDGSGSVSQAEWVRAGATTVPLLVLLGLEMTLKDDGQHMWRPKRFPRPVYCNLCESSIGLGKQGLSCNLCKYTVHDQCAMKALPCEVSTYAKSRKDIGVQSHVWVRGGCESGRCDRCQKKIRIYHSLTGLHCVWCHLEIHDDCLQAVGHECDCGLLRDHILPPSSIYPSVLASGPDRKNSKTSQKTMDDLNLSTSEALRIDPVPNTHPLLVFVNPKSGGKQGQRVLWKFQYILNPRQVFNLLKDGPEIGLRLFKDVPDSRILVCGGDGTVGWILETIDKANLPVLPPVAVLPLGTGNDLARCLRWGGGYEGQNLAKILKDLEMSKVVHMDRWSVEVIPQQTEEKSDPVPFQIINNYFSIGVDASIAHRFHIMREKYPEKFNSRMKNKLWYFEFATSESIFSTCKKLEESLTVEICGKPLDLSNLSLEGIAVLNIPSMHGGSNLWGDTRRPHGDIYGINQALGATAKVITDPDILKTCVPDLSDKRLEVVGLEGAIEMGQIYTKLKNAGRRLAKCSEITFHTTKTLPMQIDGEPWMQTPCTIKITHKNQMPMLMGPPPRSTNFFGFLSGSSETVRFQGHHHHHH
# T1 sequence (Q13574 with tags, fused parts or gaps isoform Q13574-4): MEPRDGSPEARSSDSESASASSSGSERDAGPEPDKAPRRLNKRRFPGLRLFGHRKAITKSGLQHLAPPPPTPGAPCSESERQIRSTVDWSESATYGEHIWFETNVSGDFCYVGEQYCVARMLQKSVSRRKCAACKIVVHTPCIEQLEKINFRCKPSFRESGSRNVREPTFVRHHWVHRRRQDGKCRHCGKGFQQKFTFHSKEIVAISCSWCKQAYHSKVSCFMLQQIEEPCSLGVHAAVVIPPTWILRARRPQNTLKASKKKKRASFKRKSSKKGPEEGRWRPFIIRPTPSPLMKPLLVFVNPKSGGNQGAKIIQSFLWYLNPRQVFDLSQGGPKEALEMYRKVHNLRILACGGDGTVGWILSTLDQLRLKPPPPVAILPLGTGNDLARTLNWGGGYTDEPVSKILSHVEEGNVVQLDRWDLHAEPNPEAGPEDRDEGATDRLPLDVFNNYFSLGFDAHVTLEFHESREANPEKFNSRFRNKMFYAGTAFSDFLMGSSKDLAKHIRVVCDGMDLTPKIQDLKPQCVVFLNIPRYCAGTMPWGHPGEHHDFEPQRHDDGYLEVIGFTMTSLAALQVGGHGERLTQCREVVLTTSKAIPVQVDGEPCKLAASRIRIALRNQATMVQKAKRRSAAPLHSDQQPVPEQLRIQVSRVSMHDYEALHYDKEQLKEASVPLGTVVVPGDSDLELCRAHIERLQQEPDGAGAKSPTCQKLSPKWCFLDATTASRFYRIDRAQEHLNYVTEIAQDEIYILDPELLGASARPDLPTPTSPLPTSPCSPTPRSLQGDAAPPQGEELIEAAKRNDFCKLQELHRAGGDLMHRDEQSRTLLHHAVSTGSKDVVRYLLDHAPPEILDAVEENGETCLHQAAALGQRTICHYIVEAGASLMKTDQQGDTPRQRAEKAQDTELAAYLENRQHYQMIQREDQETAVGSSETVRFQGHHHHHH
Structure (SMILES),IC50 (human DGKζ; liposome (LIPGLO) assay) [nM],IC50 (human DGKα; liposome (LIPGLO) assay) [nM],"IC50 ([1]; Mus musculus, MC-38) [nM]",EC50 (Human venous whole blood; [2]) [nM],EC50 (naïve human CD8 T cells; [5]) [nM],further results
"Cc1nnc(C2CN(c3cc(=O)n(C)c4ccc(C#N)nc34)CCN2C(c2ccc(F)cc2)c2ccc(F)cc2)o1 (centres unmarked) [Example 126, 8-(4-(bis(4-fluorophenyl)methyl)-3-(5-methyl-1,3,4-oxadiazol-2-yl)piperazin-1-yl)-5-methyl-6-oxo-5,6-dihydro-1,5-naphthyridine-2-carbonitrile]",31000,230000,10000,20000,,
"COc1cc(F)ccc1C(c1ccc(F)cc1)N1CCN(c2cc(=O)n(C)c3ccc(C#N)nc23)[C@@H](C)C1 (single isomer, unassigned) [Example 130]",960,18000,,,,IC50 [1]: 750 nM; EC50 (Human venous whole blood; [3]): 4000 nM
"CC(C)C(=O)C1CN(c2cc(=O)n(C)c3ccc(C#N)nc23)CCN1C(c1ccc(F)cc1)c1ccc(F)cc1 (single isomer, unassigned) [Example 87, 8-(4-(bis(4-fluorophenyl)methyl)-3-isobutyrylpiperazin-1-yl)-5-methyl-6-oxo-5,6-dihydro-1,5-naphthyridine-2-carbonitrile]",6600,28000,,,,IC50 [1]: 450 nM
"CC[C@@H]1CN(C(c2ccc(F)cc2)c2ccc(F)cc2)CCN1c1cc(=O)n(C)c2ccc(C#N)nc12 [Example 170, (R)-8-(4-(bis(4-fluorophenyl)methyl)-2-ethylpiperazin-1-yl)-5-methyl-6-oxo-5,6-dihydro-1,5-naphthyridine-2-carbonitrile]",,,2600,,,
"C[C@H]1CN(c2c(Cl)c(=O)n(C)c3ccc(C#N)nc23)CCN1C(c1ccc(F)cc1)c1ccc(F)cc1 [Example 36, (S)-8-(4-(bis(4-fluorophenyl)methyl)-3-methylpiperazin-1-yl)-7-chloro-5-methyl-6-oxo-5,6-dihydro-1,5-naphthyridine-2-carbonitrile]",,,1200,,,
"C[C@@H]1CN(c2cc(=O)n(C)c3ccc(C#N)nc23)[C@@H](C)CN1C(c1ccc(F)cc1)c1ccc(F)cc1 [Example 3, 8-((2S,5R)-4-(bis(4-fluorophenyl)methyl)-2,5-dimethylpiperazin-1-yl)-5-methyl-6-oxo-5,6-dihydro-1,5-naphthyridine-2-carbonitrile]",,,70,,,
"COC(=O)C1CN(c2c(F)c(=O)n(C)c3ccc(C#N)nc23)CCN1C(c1ccc(F)cc1)c1ccc(F)cc1 (single isomer, unassigned) [Example 75, Methyl 1-(bis(4-fluorophenyl)methyl)-4-(6-cyano-3-fluoro-1-methyl-2-oxo-1,2-dihydro-1,5-naphthyridin-4-yl)piperazine-2-carboxylate]",400,990,,,,IC50 [1]: 23 nM
"C[C@@H]1CN(C(c2ccc(F)cc2)c2ccc(F)cc2)[C@H](C)CN1c1cc(=O)n(C)c2ccc(C#N)nc12 [Example 131, 8-((2R,5R)-4-(bis(4-fluorophenyl)methyl)-2,5-dimethylpiperazin-1-yl)-5-methyl-6-oxo-5,6-dihydro-1,5-naphthyridine-2-carbonitrile]",,,5900,,,
"Cc1ccc(C(C)N2CCN(c3c(C#N)c(=O)n(C)c4ccc(C#N)nc34)C[C@H]2C)cc1 (single isomer, unassigned) [Example 953]",,,,,,"IC50 ([1]; murine CTL, IFN-γ): 1700 nM; IC50 (human DGKζ; DGKζ liposome (LIPGLO) assay): 15000 nM; IC50 (human DGKα; DGKα liposome (LIPGLO) assay): 1100 nM"
"CC[C@H]1CN(C(c2ccc(F)cc2)c2ccc(F)cc2)CCN1c1cc(=O)n(C)c2ccc(C#N)nc12 [Example 127, (S)-8-(4-(bis(4-fluorophenyl)methyl)-2-ethylpiperazin-1-yl)-5-methyl-6-oxo-5,6-dihydro-1,5-naphthyridine-2-carbonitrile]",,,360,,,"EC50 (Human venous whole blood; Homo sapiens, 24 h, read-out: INFg Whole Blood Normalized Agonist EC50, human whole blood, normalized to 3 μM reference compound with anti-CD3 plus anti-CD28 as 100% activation): 4300 nM"
"C[C@@H]1CN(c2cc(=O)n(C)c3ccc(C#N)nc23)[C@@H](C)CN1C(c1ccc(F)cc1)c1ncccc1F (single isomer, unassigned) [Example 187]",1300,180,,,,EC50 (naïve human CD8 T cells; [4]): 110 nM; EC50 (Human venous whole blood; [3]): 1400 nM
C[C@@H]1CN(c2c(C#N)c(=O)n(C)c3ccc(C#N)nc23)CCN1C(c1ccc(F)cc1)c1ccc(Cl)cn1 (some centres unmarked) [Example 933],,,,,,"EC50 (naïve human CD8 T cells; naïve human CD8 T cells, anti-CD3 plus anti-CD28, 3 μM reference compound = 100% activation): 350 nM; IC50 (human DGKζ; DGKζ liposome (LIPGLO) assay): 1000 nM; EC50 (Human venous whole blood; human whole blood, anti-CD3 plus anti-CD28, 24 hours, 3 μM reference compound = 100% activation, read-out: INFg Whole Blood Normalized Agonist EC50): 550 nM; IC50 (human DGKα; DGKα liposome (LIPGLO) assay): 200 nM"
"C[C@@H]1CN(c2c(C#N)c(=O)n(C)c3ccc(C#N)nc23)CCN1C(c1ccc(Cl)cc1)c1ccc(Cl)cc1 [Example 103, (R)-8-(4-(bis(4-chlorophenyl)methyl)-3-methylpiperazin-1-yl)-5-methyl-6-oxo-5,6-dihydro-1,5-naphthyridine-2,7-dicarbonitrile]",,,76,,,
"CCOc1ncccc1C(c1ccc(F)cc1)N1C[C@H](C)N(c2cc(=O)n(C)c3ccc(C#N)nc23)C[C@H]1C (single isomer, unassigned) [Example 206]",440,24000,,,,EC50 (naïve human CD8 T cells; [4]): 39 nM; EC50 (Human venous whole blood; [3]): 1400 nM

# Second part, led by results:
IC50 (human DGKζ; liposome (LIPGLO) assay) [nM],IC50 (human DGKα; liposome (LIPGLO) assay) [nM],Structure (SMILES),"IC50 ([1]; Mus musculus, MC-38) [nM]",EC50 (Human venous whole blood; [2]) [nM],EC50 (naïve human CD8 T cells; [5]) [nM],further results
3000,280,"C[C@@H]1CN(c2cc(=O)n(C)c3ccc(C#N)nc23)[C@@H](C)CN1Cc1cccc(F)c1 [Example 292, 8-[(2S,5R)-4-[(3-fluorophenyl)methyl]-2,5-dimethylpiperazin-1-yl]-5-methyl-6-oxo-5,6-dihydro-1,5-naphthyridine-2-carbonitrile]",,2200,1700,
690,200,"C[C@@H]1CN(c2cc(=O)n(C)c3ccc(C#N)nc23)[C@@H](C)CN1Cc1ccc(C#N)cc1F [Example 253, 8-[(2S,5R)-4-[(4-cyano-2-fluorophenyl)methyl]-2,5-dimethylpiperazin-1-yl]-5-methyl-6-oxo-5,6-dihydro-1,5-naphthyridine-2-carbonitrile]",,3000,87,
2000,410,"[2H]C([2H])(c1c(F)cc(F)cc1F)N1C[C@H](C)N(c2cc(=O)n(C)c3ccc(C#N)nc23)C[C@H]1C [Example 430, 8-((2S,5R)-2,5-dimethyl-4-((2,4,6-trifluorophenyl)methyl-d2)piperazin-1-yl)-5-methyl-6-oxo-5,6-dihydro-1,5-naphthyridine-2-carbonitrile]",,500,46,
1500,250,"C[C@@H]1CN(c2cc(=O)n(C)c3ccc(C#N)nc23)[C@@H](C)CN1Cc1ccc(F)cc1F [Example 277, 8-[(2S,5R)-4-[(2,4-difluorophenyl)methyl]-2,5-dimethylpiperazin-1-yl]-5-methyl-6-oxo-5,6-dihydro-1,5-naphthyridine-2-carbonitrile]",,840,66,
760,3000,"C[C@@H]1CN(c2cc(=O)n(C)c3ccc(C#N)nc23)[C@@H](C)CN1C(c1ccc(F)cc1)c1cc(F)cc(F)c1 (stereo partly drawn) [Example 289, 8-[(2S,5R)-4-[(3,5-difluorophenyl)(4-fluorophenyl)methyl]-2,5-dimethylpiperazin-1-yl]-5-methyl-6-oxo-5,6-dihydro-1,5-naphthyridine-2-carbonitrile]",,1000,220,
440,2500,COC[C@@H]1CN(c2cc(=O)n(C)c3ccc(C#N)nc23)[C@@H](C)CN1C(c1ccc(C)cc1)c1ccc(C)cc1 [Example 1156],,340,19,
270,550,"Cc1ccc(C(c2cccc(Cl)c2)N2C[C@H](C)N(c3cc(=O)n(C)c4ccc(C#N)nc34)C[C@H]2C)nc1 (single isomer, unassigned) [Example 372]",,,,EC50 (naïve human CD8 T cells; [4]): 22 nM; EC50 (Human venous whole blood; [3]): 270 nM
520,250,"C[C@@H]1CN(c2cc(=O)n(C)c3ccc(C#N)nc23)[C@@H](C)CN1C(c1ccc(F)cc1)c1cccc(F)n1 (single isomer, unassigned) [Example 471]",,570,200,
